Legend:
LAMP1 = target: T1, LAMP1 (Homo sapiens, UniProt P11279); test: Cellular thermal shift assay (CETSA); type: binding
T1 construct: endogenous in cells
T1 sequence (P11279 29-417): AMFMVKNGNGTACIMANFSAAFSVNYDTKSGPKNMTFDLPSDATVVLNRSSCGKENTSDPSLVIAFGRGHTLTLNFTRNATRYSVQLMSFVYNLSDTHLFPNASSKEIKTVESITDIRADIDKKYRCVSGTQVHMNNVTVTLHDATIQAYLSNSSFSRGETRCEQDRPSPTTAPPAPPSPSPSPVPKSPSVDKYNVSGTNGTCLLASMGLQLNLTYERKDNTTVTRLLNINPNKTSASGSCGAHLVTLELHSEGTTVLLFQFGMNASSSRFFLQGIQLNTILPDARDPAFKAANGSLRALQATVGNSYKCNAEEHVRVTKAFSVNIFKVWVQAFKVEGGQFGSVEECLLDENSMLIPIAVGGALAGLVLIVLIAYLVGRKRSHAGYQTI
Text: FIGS. 5A-5E include images of experiments showing hetero-assembly forms around Compound 1 and not around endogenous molecules as shown by the liquid crystals formed in experiments 1-3 (5A); image of STRING network of targets at the interactome of Compound 1 (5B); cellular thermal shift assay (CETSA) of different targets of the Compound 1 hetero-assembly (5C); surface plasmon resonance sensograms of binding of Compound 1 to LAMP1 (5D); sensogram experiments consisting of association and dissociation at the indicated concentration ranges and pH values were then conducted.
The inventors have investigated the mechanism of action of 144DG11. To that end, the inventors first decided to determine its molecular target. Nematic protein organization technique (NPOT, Inoviem, Ltd.) was applied to homogenates of APBD patient fibroblasts. The NPOT analysis has discovered protein hetero assemblies uniquely generated around 144DG11 only when it was added to the cell homogenates (FIG. 5A). The next step in this analysis has identified the interactome of protein targets interacting with 144DG11 in APBD patients' fibroblasts. […] In the search for a putative binding site for Compound 1 in LAMP1, the inventors have analyzed the N- and C-terminal subdomains of its luminal domain (residues A29-R195 and S217-D378, respectively), which have a similar topology. […]

Gbe^ys/ys mice = test: Histological PG (PAS after diastase) and biochemical glycogen determination in tissues; type: in vivo
Text: FIGS. 2A-2C include images and graphs of histopathological effects of Compound 1 and its pharmacokinetics: right panel present images of indicated tissues of sacrificed mice and stained for PG (arrows) with PAS following treatment with diastase; left panel, presents bar graphs quantifying PAS staining, based on analysis of 4 sections from each tissue in n=2 wild type, n=7 Gbe^ys/ys vehicle-treated, and n=9 Compound 1-treated mice (2A); bar graph quantifying total glycogen in the respective tissues (2B); graph of Compound 1pharmacokinetics (2C); 9 months old Gbe^ys/ys mice were SC-injected with 150 μL of Compound 1 at 250 mg/kg. Mice were sacrificed 30-, 60-, 90-, and 210-min post injection and the indicated tissues were removed, as well as 200 μL of serum drawn. […] Shown are means and SEM of results obtained from n=3 mice at each time point.
Brain, heart, muscle, nerve fascicles (peripheral nerves), and liver tissues from wt and Compound 1 and vehicle treated Gbe^ys/ys animals were separated to characterize the histopathological effects of Compound 1. Tissues were extracted, fixed, embedded in paraffin, and sectioned. After deparaffinization, sections were treated for 5 min with 0.5% diastase to digest non-polyglucosan glycogen, leaving behind polyglucosan. Sections were then washed, stained for polyglucosan with PAS and counterstained with hematoxylin, and analyzed by light microscopy, all as previously described. […] Following digestion, total glycogen was determined based on the glucose content using the Sigma GAGO20 kit.
This information is important for determining whether the expected mode of action of Compound 1 discovered ex vivo -reduction of polyglucosan levels in fibroblasts — also takes place in vivo and if so in which tissues. […] Following diastase treatment to digest non-polyglucosan glycogen, leaving behind polyglucosan, sections were stained for polyglucosan with periodic acid-Schiff s (PAS) reagent, counterstained with hematoxylin and analyzed by light microscopy.

Agl^−/− mice = test: Blood metabolic panel in Agl^-/- mice (GSD3); type: in vivo; conditions: 6-months mice treated for 3 months
Text: FIG. 18 includes a vertical bar graph showing blood metabolic panel based on n=5-6 6-months wildtype or Agl^−/− mice treated as indicated for 3 months.

[1] = PAS after diastase, sacrifice at 9.5 months

COCCN(Cc1sccc1C)C(=O)c1cc(C)nc(O)c1 [Compound 1]
increase in LAMP1 levels (LAMP1): 1.2 fold | interaction with LAMP1 (not other protein targets; 6 of 8 NPOT targets tested) (LAMP1): directly interacts | muscle polyglucosans (Gbe^ys/ys mice; [1]): no apparent effect | polyglucosan levels in brain, liver, heart, and peripheral nerve (Gbe^ys/ys mice; [1]): significant reduction in polyglucosan levels | total glycogen levels, determined biochemically (Gbe^ys/ys mice; same tissues): correspondingly affected | blood triglycerides (Agl^−/− mice): decreased

— patent US20240139167A1, “LYSOSOME-ASSOCIATED MEMBRANE PROTEIN TARGETING COMPOUNDS AND USES THEREOF” (HADASIT MEDICAL RESEARCH SERVICES AND DEVELOPMENT LTD., priority 2021, published 2024)
